Assay results as given in patent publication US20100173983A1, “METHOD FOR INDUCING AUTOPHAGY” (priority 2007, published 2010).

Assays:
Assay type in all cases: cell-based, Human
R-182 cells = assay: Mitochondrial membrane depolarization, JC-1 flow cytometry; conditions: cells treated 5 μg/ml
Source text: (§1) FIG. 8. Molecular evidence of autophagic cell death in R-182 ovarian cancer cells induced by Cpd 1. […] B, Beclin 1 binds to Bcl-2. Immunoprecipitation study using mitochondrial preparations of cells pre-treated with Cpd 1 as stated in A, and subjected to beclin 1 immunoprecitation. Immunoprecipitated fractions were washed in PBS, subjected to SDS-PAGE, blotted and then probed with a mouse anti-Bcl-2 antibody. Actin and Topo-1 were used as loading control. C, Depolarized cells resulting from over-expression of Bax and Beclin 1 following administration of Cpd 1. Cells were treated with Cpd 1 as described in A, pelleted and washed in HBSS and the cell pellet resuspended in the reaction buffer for JC-1 (Biovision, Inc. MitoCapture™ K250-100). HBSS-washed cells were analysed by flow cytometry (λexcit=488 nm and (λemit=530 nm for green fluorescence (depolarized) or 590 nm for red fluorescence (polarized). 10,000 gated events were measured with a BD FACScalibur. Results were expressed as mean±standard deviation (n=3).
To measure membrane depolarization cells were treated with Cpd 1 as described above, pelleted and washed in HBSS and the cell pellet resuspended in the reaction buffer for JC-1 (Biovision, Inc. MitoCapture™ K250-100). HBSS-washed cell pellets were resuspended in 1 mL aliquots of the Mitocapture reagent buffer with 1 μL of JC-1 solution in DMSO (Biovision).

[1] = system: CP70 (cell line), R179, R182, R585 (primary ovarian cancer explants); assay: Cell viability, CellTiter 96 Aqueous One Solution Cell Proliferation Assay, ovarian cancer cells; conditions: concentrations up to 10 μg/ml, 24 hr exposure
Method: FIG. 1. Comparative cytotoxicity of dehydroequol and Compound I as described herein (Cpd 1) against normal and ovarian cancer cells: CP70 (cell line), R179, R182, R585 (primary ovarian cancer explants) and OSE (normal ovarian surface epithelial cells). […] Both compounds were tested at concentrations up to 10 μg/ml and exposed to cells for 24 hr.
Human EOC cell lines A2780, CP70, and OSE were propagated in RPMI plus 10% fetal bovine serum (FBS) (Gemini Bio-Products, Woodland, Calif.) at 37° C. in a 5% CO2 atmosphere. Primary EOC cells (R179, R182, R585) were isolated from malignant ovarian ascites and cultured as previously described (Kamsteeg et al., 2003). Dehydroequol and Compound 1 (Cpd 1) were obtained from Novogen (Australia). All other reagents were purchased from Sigma Chemical (St. Louis, Mo.). The pan caspase inhibitor Z-VAD-FMK was obtained from R&D Systems (Minneapolis, Minn.).
Cell viability was evaluated using the CellTiter 96 Aqueous One Solution Cell Proliferation Assay (Promega, Madison, Wis.) according to the manufacturer's instructions. The values from the treated cells were compared with the values generated from the untreated cells and reported as percent viability. Each experiment was performed in triplicate.

endonuclease G = assay: Western blot of R-182 nuclear preparations, endonuclease G; conditions: R-182 cells, 5 μg/ml over 24 hr
Source text: as §1
After treatment with Cpd 1, protein was extracted from cells and measured as previously described (Kamsteeg et al., 2003). For separation of the cytoplasmic and mitochondrial fractions, cell pellets were processed using the ApoAlert Cell Fractionation kit (Promega) according to the manufacturer's instructions. […]

[2] = system: CP70 ovarian cancer cells; assay: DNA fragmentation, PI/Hoechst FACS analysis; conditions: 10 μM for 24 hr; 1.4% in the absence of Cpd 1
Method: FIG. 7. Cpd 1 induces DNA degradation in CP70 cells. A, No treatment control. B, Cpd 1-treated cells. CP70 ovarian cancer cells were incubated with 10 μg/ml Cpd 1 for […] and fixed. Cells were co-stained with propidium iodide and Hoechst A and incidence of PI labelled cells indicative of DNA degradation in quandrant 2 was assessed by FACS analysis.
The inventors then determined whether treatment with Cpd 1 induced DNA fragmentation. Ovarian cancer cells were treated with Cpd 1 (10 μM) for 24 hr and gently trypsinised. Trypsinized cells were combined with non-adherent cells, rinsed once in medium containing serum and then resuspended at a concentration of 10^7 cells/ml in PBS. Cells were then fixed by adding 0.5 ml of cell suspension to 4.5 ml 70% ice-cold ethanol. After 2 h on ice, cells were pelleted and the ethanol was thoroughly decanted. The cell pellet was rinsed in 5 ml PBS, centrifuged, resuspended in 1 ml of PBS containing 0.1% Triton X-100, 0.2 mg/ml DNase-free RNase A, and 20 μg/ml propidium iodide (PI) and 2 μg/ml hoechst-A and incubated at 37° C. for 15 min before FACS analysis. Cells were analyzed using Becton Dickinson Cell Quest FACStation software (version 3.0.1) operating a Becton Dickinson FACSCalibur FACS machine. Gating was used to remove debris and doublets before collection. Results were quantitated using ModFit LT (1999; Topsham, Me.: Verity Software House, Inc.). […]

Which mitochondrial membrane depolarization (R-182 cells) does the source give for COc1ccc([C@H]2c3ccc(O)c(C)c3OC[C@H]2c2ccc(O)cc2)cc1 (stereo in doubt) [Cpd 1, 3-(4-hydroxyphenyl)-4-(4-methoxyphenyl)-8-methylchroman-7-ol] here?
Its mitochondrial membrane depolarization is “results in mitochondrial membrane depolarization”.

What about the “cell viability of ovarian cancer cells” value [1] of the same compound?
The value was “decreased cell viability of all primary ovarian cancer cells”.

And the “endonuclease G in nuclear preparations” value (endonuclease G)?
Its value is “upregulated”.

And the DNA fragmentation [2]?
The DNA fragmentation was 95%.
